Reference: patent EP4640206A1, “NISIN FOR INHIBITING BIOFILMS” (SkyLab AG, priority 2024, dated 2025)

Tested on: multispecies biofilms
Test: Follow-up observation of pH of washes of a laboratory model of multispecies biofilms in 10% sucrose
Assay type: cell-based
Conditions: for Value of pH decrease within 30 min. of measurement (%): compared to the initial value
Procedure: Example No. 3. Follow-up observation of pH of washes of a laboratory model of multispecies biofilms.
To perform this test, it was necessary to obtain multispecies biofilms of bacteria. A 72-well, round-bottom, polystyrene plate for titration was used as an adhesive surface for growing multispecies biofilms. The inner surface was processed with a round abrasive drill bit, with visual inspection of the procedure. Then the plate was washed and immersed into isopropyl alcohol for 10 min. followed by 3-fold washing in distilled water.
Saliva was collected in the fasting state by spitting into a sterile centrifuge tube. Saliva was used to prepare inoculum with the following composition: 96.5 ml of saliva, 1 ml of 10% sucrose, 3.5 ml of S.mutans suspension 0.8 units of McF.
To obtain biofilms, the prepared inoculum was poured 1 ml into all wells of the prepared plate, after which the wells were covered with a similar plate and sealed with parafilm film. The plate was placed on a shaker pad with variable surface slope placed in a CO2 incubator and incubated overnight (16 hours). The contents of the wells were then extracted with an aspirator by dipping the plastic tip into the center of the well until completely drained. 1 ml of soy-casein broth was added to all wells of the plate with an automatic pipette. The plate was placed into the incubator. The described cycle was repeated for four days.
Biofilm formation was monitored visually by gram staining. After four days, the contents of the wells were extracted with an aspirator. All 6 wells of the first row were filled with 1 ml of deionized water and left for 5 min. Water was extracted with an aspirator; 1 ml of the test drug was added into the wells, in 1 min. the drug was removed, the wells were filled for 1 min. with deionized water, then it was removed. 250 µl of 10% sucrose solution was added to the wells. The formed biofilms were scraped off with a disposable loop (10µl); the suspension of two neighboring wells was combined and transferred to three Eppendorfs. Sample combination allowed increasing the volume of the analyzed suspension sample up to 0.5 ml, which in turn allowed carrying out pH measurements in free volume with the necessary reserve at high density of biofilm culture of microorganisms and optimal time for the sample measurement procedure (20 sec.). After combination of the samples, pH was immediately measured. The measurement time points were 0, 1, 2, 3, 4, 5, 6, 6, 7, 8, 9, 10, 15,20,30 min. The results of pH changes in multispecies dental biofilms in the presence of sucrose under the influence of active ingredients are shown in Figure 3 and Tables 3-4. Table 3. Results of pH measurements of mechanically disrupted multispecies biofilms in 10% sucrose solution, follow-up (10% sucrose solution pH-6.98).

Nisin was tested, and the “pH of mechanically disrupted multispecies biofilms” value (Nisin 0.004%, 0 min) was 6.32±0.006, the “pH of mechanically disrupted multispecies biofilms” value (Nisin 0.004%, 1 min) was 6.3±0.006 and the “pH change (in brackets), multispecies biofilms” value (shortened to “pH change (in brackets)”) (Nisin 0.004%, 1 min vs previous time point) was -0.02. For the same compound, the “pH of mechanically disrupted multispecies biofilms” value (Nisin 0.004%, 2 min) was 6.28±0.0, the “pH change (in brackets)” value (Nisin 0.004%, 2 min vs previous time point) was -0.02 and the “pH of mechanically disrupted multispecies biofilms” value (Nisin 0.004%, 3 min) was 6.26±0.006. For the same compound, the “pH change (in brackets)” value (Nisin 0.004%, 3 min vs previous time point) was -0.02, the “pH of mechanically disrupted multispecies biofilms” value (Nisin 0.004%, 4 min) was 6.24±0.01 and the “pH change (in brackets)” value (Nisin 0.004%, 4 min vs previous time point) was -0.02. For the same compound, the “pH of mechanically disrupted multispecies biofilms” value (Nisin 0.004%, 5 min) was 6.22±0.006, the “pH change (in brackets)” value (Nisin 0.004%, 5 min vs previous time point) was -0.02 and the “pH of mechanically disrupted multispecies biofilms” value (Nisin 0.004%, 6 min) was 6.2±0.0. For the same compound, the “pH change (in brackets)” value (Nisin 0.004%, 6 min vs previous time point) was -0.02, the “pH of mechanically disrupted multispecies biofilms” value (Nisin 0.004%, 7 min) was 6.2±0.006 and the “pH change (in brackets)” value (Nisin 0.004%, 7 min vs previous time point) was 0. For the same compound, the “pH of mechanically disrupted multispecies biofilms” value (Nisin 0.004%, 8 min) was 6.19±0.0, the “pH change (in brackets)” value (Nisin 0.004%, 8 min vs previous time point) was -0.01 and the “pH of mechanically disrupted multispecies biofilms” value (Nisin 0.004%, 9 min) was 6.19±0.006. For the same compound, the “pH change (in brackets)” value (Nisin 0.004%, 9 min vs previous time point) was 0, the “pH of mechanically disrupted multispecies biofilms” value (Nisin 0.004%, 10 min) was 6.18±0.0 and the “pH change (in brackets)” value (Nisin 0.004%, 10 min vs previous time point) was -0.01. For the same compound, the “pH of mechanically disrupted multispecies biofilms” value (Nisin 0.004%, 15 min) was 6.12±0.006, the “pH change (in brackets)” value (Nisin 0.004%, 15 min vs previous time point) was -0.06 and the “pH of mechanically disrupted multispecies biofilms” value (Nisin 0.004%, 20 min) was 6.11±0.0. The “pH change (in brackets)” value (Nisin 0.004%, 20 min vs previous time point) was -0.01, the “pH of mechanically disrupted multispecies biofilms” value (Nisin 0.004%, 30 min) was 6.07±0.006 and the “pH change (in brackets)” value (Nisin 0.004%, 30 min vs previous time point) was -0.04. The “Value of pH decrease within 30 min. of measurement (%)” value (Nisin 0.004%) was -3.95%, the “Value of pH decrease within 30 min. of measurement (%)” value (Nisin 0.008%) was -8.7% and the “pH of mechanically disrupted multispecies biofilms” value (Nisin 0,008%, 0 min) was 6.54±0.006. The “pH of mechanically disrupted multispecies biofilms” value (Nisin 0,008%, 1 min) was 6.45±0.006, the “pH change (in brackets)” value (Nisin 0,008%, 1 min vs previous time point) was -0.09 and the “pH of mechanically disrupted multispecies biofilms” value (Nisin 0,008%, 2 min) was 6.4±0.006. For the same compound, the “pH change (in brackets)” value (Nisin 0,008%, 2 min vs previous time point) was -0.05, the “pH of mechanically disrupted multispecies biofilms” value (Nisin 0,008%, 3 min) was 6.35±0.006 and the “pH change (in brackets)” value (Nisin 0,008%, 3 min vs previous time point) was -0.05. For the same compound, the “pH of mechanically disrupted multispecies biofilms” value (Nisin 0,008%, 4 min) was 6.3±0.006, the “pH change (in brackets)” value (Nisin 0,008%, 4 min vs previous time point) was -0.05 and the “pH of mechanically disrupted multispecies biofilms” value (Nisin 0,008%, 5 min) was 6.22±0.01. The “pH change (in brackets)” value (Nisin 0,008%, 5 min vs previous time point) was -0.08, the “pH of mechanically disrupted multispecies biofilms” value (Nisin 0,008%, 6 min) was 6.16±0.006 and the “pH change (in brackets)” value (Nisin 0,008%, 6 min vs previous time point) was -0.06. The “pH of mechanically disrupted multispecies biofilms” value (Nisin 0,008%, 7 min) was 6.1±0.01, the “pH change (in brackets)” value (Nisin 0,008%, 7 min vs previous time point) was -0.06 and the “pH of mechanically disrupted multispecies biofilms” value (Nisin 0,008%, 8 min) was 6.0±0.02. The “pH change (in brackets)” value (Nisin 0,008%, 8 min vs previous time point) was -0.1, the “pH of mechanically disrupted multispecies biofilms” value (Nisin 0,008%, 9 min) was 5.99±0.006 and the “pH change (in brackets)” value (Nisin 0,008%, 9 min vs previous time point) was -0.01. For the same compound, the “pH of mechanically disrupted multispecies biofilms” value (Nisin 0,008%, 10 min) was 5.98±0.0, the “pH change (in brackets)” value (Nisin 0,008%, 10 min vs previous time point) was -0.01 and the “pH of mechanically disrupted multispecies biofilms” value (Nisin 0,008%, 15 min) was 5.97±0.006. For the same compound, the “pH change (in brackets)” value (Nisin 0,008%, 15 min vs previous time point) was -0.01, the “pH of mechanically disrupted multispecies biofilms” value (Nisin 0,008%, 20 min) was 5.96±0.006 and the “pH change (in brackets)” value (Nisin 0,008%, 20 min vs previous time point) was -0.01. The “pH of mechanically disrupted multispecies biofilms” value (Nisin 0,008%, 30 min) was 5.97±0.006, the “pH change (in brackets)” value (Nisin 0,008%, 30 min vs previous time point) was “+0.01” and the “effect on the value of acidity in the multispecies biofilm affected by sucrose” value (nisin 0.004 and 0.008%) was “stabilizing effect”.
With NC(N)=O [Urea, reference compound] the “pH of mechanically disrupted multispecies biofilms” value (Urea 0.5%, 0 min) was 6.4±0.006, the “pH of mechanically disrupted multispecies biofilms” value (Urea 0.5%, 1 min) was 6.4±0.006 and the “pH change (in brackets)” value (Urea 0.5%, 1 min vs previous time point) was 0. For the same compound, the “pH of mechanically disrupted multispecies biofilms” value (Urea 0.5%, 2 min) was 6.4±0.006, the “pH change (in brackets)” value (Urea 0.5%, 2 min vs previous time point) was 0 and the “pH of mechanically disrupted multispecies biofilms” value (Urea 0.5%, 3 min) was 6.4±0.006. For the same compound, the “pH change (in brackets)” value (Urea 0.5%, 3 min vs previous time point) was 0, the “pH of mechanically disrupted multispecies biofilms” value (Urea 0.5%, 4 min) was 6.41±0.006 and the “pH change (in brackets)” value (Urea 0.5%, 4 min vs previous time point) was “+0.01”. The “pH of mechanically disrupted multispecies biofilms” value (Urea 0.5%, 5 min) was 6.42±0.006, the “pH change (in brackets)” value (Urea 0.5%, 5 min vs previous time point) was “+0.01” and the “pH of mechanically disrupted multispecies biofilms” value (Urea 0.5%, 6 min) was 6.44±0.006. For the same compound, the “pH change (in brackets)” value (Urea 0.5%, 6 min vs previous time point) was “+0.02”, the “pH of mechanically disrupted multispecies biofilms” value (Urea 0.5%, 7 min) was 6.45±0.006 and the “pH change (in brackets)” value (Urea 0.5%, 7 min vs previous time point) was “+0.01”. The “pH of mechanically disrupted multispecies biofilms” value (Urea 0.5%, 8 min) was 6.43±0.02, the “pH change (in brackets)” value (Urea 0.5%, 8 min vs previous time point) was -0.02 and the “pH of mechanically disrupted multispecies biofilms” value (Urea 0.5%, 9 min) was 6.43±0.0. The “pH change (in brackets)” value (Urea 0.5%, 9 min vs previous time point) was 0, the “pH of mechanically disrupted multispecies biofilms” value (Urea 0.5%, 10 min) was 6.42±0.0 and the “pH change (in brackets)” value (Urea 0.5%, 10 min vs previous time point) was -0.01. For the same compound, the “pH of mechanically disrupted multispecies biofilms” value (Urea 0.5%, 15 min) was 6.25±0.01, the “pH change (in brackets)” value (Urea 0.5%, 15 min vs previous time point) was -0.17 and the “pH of mechanically disrupted multispecies biofilms” value (Urea 0.5%, 20 min) was 6.18±0.02. The “pH change (in brackets)” value (Urea 0.5%, 20 min vs previous time point) was -0.07, the “pH of mechanically disrupted multispecies biofilms” value (Urea 0.5%, 30 min) was 5.97±0.02 and the “pH change (in brackets)” value (Urea 0.5%, 30 min vs previous time point) was -0.21. For the same compound, the “Value of pH decrease within 30 min. of measurement (%)” value (Urea 0.5%) was -6.7%.
